Experimental data published in patent US20170296500A1, “Uses of Chlorogenic Acid in the Preparation of Medicaments for Treatment of Psoriasis” (SICHUAN JIUZHANG BIOLOGICAL SCIENCE AND TECHNOLOGY CO., LTD, priority 2014, published 2017).
Read-outs that look alike come from different tables or passages of the source.

What was measured:
[1] = parameters: species or system guinea pigs; conditions: guinea pig, in vivo
Experimental: 0.9% sodium chloride solution was administrated to blank group and model group; Positive drug control group was given suspension of acitretin A capsule at 2.25 mg/kg, and the amount of intragastric administration is all 1 mL/100 g for each time, twice a day; 20 mg/kg chlorogenic acid was administrated to the low-dose group by intramuscular injection, and 40 mg/kg chlorogenic acid was administrated to the high-dose group by intramuscular injection, using a volume of 0.2 ml/10 g, once a day.
Before guinea pigs were sacrificed, blood was drawn via peritoneal cavity, and urea nitrogen and creatinine were detected by enzymic method, while glutamate pyruvate transaminase and glutamic-oxalacetic transaminase were tested using rate method.

[2] = system: psoriasiform pathological change in aural region of guinea pigs; test: Pharmacodynamic test, psoriasis vulgaris model induced by 5% propranolol emulsion on guinea pig ears; Baker pathologic scores; assay type: in vivo; conditions: 14 days; for Pathology of lesional tissue after administration (light microscope): guinea pig ear, HE stain; for Baker scores compared with model group: P<0.01
From the text: 60 guinea pigs adapted to diet one week before initiation of experimentation, and both ears of guinea pigs were unhaired, and randomly divided into blank group and experimental group, with 12 guinea pigs for blank group and 48 guinea pigs for experimental group. In experimental group, 5% propranolol dinitrate emulsion was evenly applied to bilateral ear back of guinea pigs, while in blank group, blank medium was applied for 14 days, with a thickness of about 1.0 mm for each time and 4 times per day, to induce pathologic change of psoriasis vulgaris-appearing. […] Based on body weight and conditions of establishing model, the remaining 44 guinea pigs were divided into 4 groups using random digits table, i.e. model group, positive group, low-dose group of chlorogenic acid, high-dose group of chlorogenic acid, 11 guinea pigs for each group.
After administrating for 14 days, samples were taken, and 12% chloral hydrate was peritoneally injected at a dose of 0.35 mL/100 g. After anesthesia, blood sample was collected from abdominal aorta, and animals were sacrificed. Both ear tissues of guinea pigs were scissored and fixed in 10% formaldehyde solution. Ear tissues of guinea pigs were taken out, embedded in paraffin, sliced, normally stained with HE, and sealed with neutral gum. Pathological change of ears was observed under optical microscope, investigated and taken a picture in 10×20 vision. Referring to Baker method, pathologic scores of tissues were assessed: the presence of Munro microabscess in corneum layer scores 2.0 point; hyperkeratosis scores 0.5 point; parakeratosis scores 1.0 point; stratum granulosum thinning and disappearing scores 1.0 point; acanthosis scores 1.0 point; skin process extension and tortuous basal lamina are marked 0.5, 1.0, 1.5 according to light, middle, and heavy degrees, respectively; mononuclear cells and polymorphonuclear cells infiltration in dermis is marked 0.5, 1.0, 1.5 according to light, middle, and heavy degrees, respectively; obvious mastoid extrusion scores 0.5 point; telangiectasis in superficial layer of dermis scores 0.5 point.

[3] = system: polymorphonuclear leukocytes (PMN); test: PMN transport into zymosan A-soaked gelatin sponge in peritoneal cavity of mice (psoriasis pustulosa test); assay type: in vivo, Kunmin mice
Experimental: Kunmin mice were randomly divided into 3 groups. Blank control group: according to body weight, about 0.5 ml of peanut oil was administrated to mice by gavage everyday; for high-dose group of chlorogenic acid (20 mg·kg^−1), chlorogenic acid was administrated to each mouse at a dose of 0.4 ml/20 g by peritoneal injection; for low-dose group of chlorogenic acid (10 mg·kg^−1), chlorogenic acid was administrated to each mouse at a dose of 0.4 ml/20 g by peritoneal injection. Following phasic points were observed, i.e. before administration (day 0), days 1, 2, 4, 6 after administration.
After a piece of sterile gelatin sponge (1 cm^2) was immersed in 0.75% zymosan A for 30 min, it was placed in peritoneal cavity of mice by surgery, and mice received standard diet. 24 hours after surgery, 5 mice of same phasic point were decapitated, and the gelatin sponges were taken out and stored in 0.5 ml cell eluant for culturing 30 min at 37 ° C., respectively. The gelatin sponges were washed with 0.01 mol/LPBS0.5 ml thrice, respectively, and the eluant was collected, passed through 40 μm nylon screen cloth, centrifuged, and the volume was 0.5 ml. Cells in above eluants were counted by automatic blood cell counter, and the amount of polymorphonuclear leukocytes (PMN) was read.

Structure (SMILES): O=C(/C=C/c1ccc(O)c(O)c1)O[C@@H]1C[C@](O)(C(=O)O)C[C@@H](O)[C@H]1O [chlorogenic acid]
- ALT ([1]; 20 mg/kg): 33.40 ± 7.26 u/L
- AST ([1]; 20 mg/kg): 29.10 ± 7.29 u/L
- Serum creatinine ([1]; 20 mg/kg): 88.33 ± 7.80 µmol/L
- Urea nitrogen ([1]; 20 mg/kg): 4.92 ± 0.63 mmol
- ALT ([1]; 40 mg/kg): 32.30 ± 6.07 u/L
- AST ([1]; 40 mg/kg): 24.80 ± 2.57 u/L
- Serum creatinine ([1]; 40 mg/kg): 87.27 ± 4.67 µmol/L
- Urea nitrogen ([1]; 40 mg/kg): 4.98 ± 0.71 mmol
- Pathology of lesional tissue after administration (light microscope) ([2]; chlorogenic group 20 and 40 mg/kg i.m.): obvious improvement
- Baker scores compared with model group ([2]; guinea pigs, 20 and 40 mg/kg intramuscular injection once a day): significantly different
- Baker score of low-dose group (20 mg/kg) relative to high-dose group (40 mg/kg) ([2]; guinea pigs, intramuscular injection once a day, not dose-dependent): superior
- Chemotactic activity of PMN in mice ([3]; 10 and 20 mg/kg peritoneal injection): significantly reduce
- PMN transport numbers ([3]; high dose group 20 mg/kg peritoneal injection, Day 0 (before administration)): 7.60 ± 6.07 ×10^9/L
- PMN transport numbers ([3]; high dose group 20 mg/kg peritoneal injection, Day 1): 1.54 ± 0.26 ×10^9/L
- PMN transport numbers ([3]; high dose group 20 mg/kg peritoneal injection, Day 2): 1.20 ± 2.14 ×10^9/L
- PMN transport numbers ([3]; high dose group 20 mg/kg peritoneal injection, Day 4): 1.15 ± 0.89 ×10^9/L
- PMN transport numbers ([3]; high dose group 20 mg/kg peritoneal injection, Day 6): 1.10 ± 1.29 ×10^9/L
- PMN transport numbers ([3]; low dose group 10 mg/kg peritoneal injection, Day 0 (before administration)): 6.98 ± 1.71 ×10^9/L
- PMN transport numbers ([3]; low dose group 10 mg/kg peritoneal injection, Day 1): 4.92 ± 2.63 ×10^9/L
- PMN transport numbers ([3]; low dose group 10 mg/kg peritoneal injection, Day 2): 2.67 ± 1.33 ×10^9/L
- PMN transport numbers ([3]; low dose group 10 mg/kg peritoneal injection, Day 4): 1.98 ± 0.90 ×10^9/L
- PMN transport numbers ([3]; low dose group 10 mg/kg peritoneal injection, Day 6): 1.62 ± 0.58 ×10^9/L
- Inhibitory action on chemotactic activity of PMN, high dose group (20 mg/kg) compared with low dose group (10 mg/kg) ([3]; peritoneal injection): stronger inhibitory action

Structure (SMILES): COc1cc(C)c(/C=C/C(C)=C/C=C/C(C)=C/C(=O)O)c(C)c1C [Acitretin A capsule, Acitretin A, reference compound]
- Pathology of lesional tissue after administration (light microscope) ([2]; positive group 2.25 mg/kg intragastric twice a day): obvious improvement
- Baker scores compared with model group ([2]; guinea pigs, positive group 2.25 mg/kg intragastric twice a day): significantly different
